Data set [1] concerns the target T1, cGMP-specific 3',5'-cyclic phosphodiesterase (Homo sapiens, UniProt O76074). Put plainly: Inhibition of PDE5 of human platelets.
Data set [2] in a line: Selectivity for PDE5 of human platelets over PDE4 of rat kidney.
Data set [3] is described as follows: Selectivity for PDE5 of human platelets over PDE2 of rat kidney.
The nature of data set [4]: Selectivity for PDE5 of human platelets over PDE6 of bovine retina.
Data set [5] can be described thus: Selectivity for PDE5 of human platelets over PDE1 of bovine heart.
Data set [6] in a line: Bioavailability was determined in dogs. It is filed as ADME, organism-based, Canis lupus familiaris. The following applies: dog, in vivo.
The nature of data set [7]: Half life was determined in dogs. It is filed as ADME, organism-based, Canis lupus familiaris. The following applies: dog, in vivo.
Data set [8] is described as follows: Half life was determined in male rats. It counts as ADME, organism-based. The following applies: rat, in vivo.
Data set [9] is described as follows: Bioavailability was determined in male rats. It is filed as ADME, organism-based. The following applies: rat, in vivo.
The nature of data set [10]: Bioavailability was determined in dogs after a dose of 23 uM/kg. It is filed as ADME, organism-based, Canis lupus familiaris. The note with it: dog, in vivo.
The nature of data set [11]: Half life was determined in male rats after a dose of 21 uM/kg. It is filed as ADME, organism-based. The following applies: rat, in vivo.
The nature of data set [12]: Half life was determined in dogs after a dose of 23 uM/kg. It counts as ADME, organism-based, Canis lupus familiaris. The following applies: dog, in vivo.
The nature of data set [13]: Bioavailability was determined in male rats after a dose of 21 uM/kg. The note with it: rat, in vivo. It counts as ADME, organism-based.
Data set [14] concerns the target T1, cGMP-specific 3',5'-cyclic phosphodiesterase. Briefly: Relaxant effect on rabbit corpus cavernosal tissue strips. It counts as tissue-based, Oryctolagus cuniculus, Corpus cavernosum. The following applies: target entry is the homologue from another species.

pEC50, pIC50: −log10 of the molar value.

The compound `CCn1ncc2c(N[C@@H](C)C3CCCCC3)c3cc(C#N)ccc3nc21` had a negative-log IC50 (pIC50) in data set [1] of 9.00.

As for `CCCCNc1c(C(=O)OCC)cnc2c1cnn2CC` [CARTAZOLATE], the pIC50 in data set [1] is 6.74. For the same compound, the IC50 ratio in data set [2] was 1; in data set [3] it was 45; in data set [4] it was 2; in data set [5], 43.

The compound `CCn1ncc2c(NCc3ccc(OC)c(Cl)c3)c(C(=O)NC[C@@H]3CCCO3)cnc21` gave a pIC50 in data set [1] of 8.74. Further, the IC50 ratio was found to be 760 in [2], 8000 in data set [3], 22 in [4] and 2500 in data set [5].

In the case of `CCCc1nn(C)c2c(=O)[nH]c(-c3cc(S(=O)(=O)N4CCN(C)CC4)ccc3OCC)nc12`, the bioavailability in data set [6] worked out at 54%; in [9], 15%. Moreover, the half-life is 5.2 h in data set [7] and 0.3 h in data set [8].

In data set [1], `CCn1ncc2c(NCc3ccc(OC)c(Cl)c3)c(C(=O)NCCCN3CCCC3=O)cnc21` showed a pIC50 of 8.80. Moreover, the IC50 ratio in data set [2] is 460; in [3], 3000; in data set [4] it was 19; in [5], 2900.

As to `CCn1ncc2c(NCc3ccc(OC)c(Cl)c3)c(C(=O)NCc3ccncc3)cnc21`, in data set [1], the negative logarithm of the IC50 (pIC50) was 9.10. In addition, the bioavailability is 66% in data set [10] and 33% in data set [13]. For the same compound, the IC50 ratio worked out at 600 in data set [2], 9200 in data set [3], 47 in [4] and 6400 in data set [5]. Also, the half-life is 1.2 h in data set [11] and 2.3 h in data set [12]. In [14], this compound showed a pEC50 of 7.36.

`CCn1ncc2c(NCc3ccc(OC)c(Cl)c3)c(C(=O)NCCCCCO)cnc21`: the pIC50 in data set [1] was 8.85. Further, the IC50 ratio in data set [2] stood at 340; in [3], 5200; in data set [4], 35; in data set [5], 2700.

As for `CCn1ncc2c(NCc3ccc(OC)c(Cl)c3)c(C(=O)O)cnc21`, the negative logarithm of the IC50 (pIC50) in data set [1] is 7.42.

Source of the values: ChEMBL document CHEMBL1134846, “Substituted pyrazolopyridines as potent and selective PDE5 inhibitors: potential agents for treatment of erectile dysfunction” (J Med Chem, 2001).
